# Source: US20250084079A1, “COMPOSITIONS AND METHODS FOR INHIBITION OF RAS” (TheRas, Inc., priority 2022, published 2025)
# Key:
# [1] = biological target: T1, Avi-KRAS G12D/Q25A (1-169) GppNHp/3xFLAG-PI3KCA (157-299) (Homo sapiens, UniProt P01116, G12D/Q25A); test: RAS-effector PPI HTRF disruption assay, PI3KCA-GppNHp-KRAS G12D/Q25A; assay type: biochemical
# T1 construct: 375 nM Avi-KRAS G12D/Q25A (1-169) GppNHp
# Summary of the method: (§1)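 Compounds (10-point, 3× dilution from 100 μM) were incubated with GppNHp-loaded KRAS–effector complex for 1 h at room temperature with shaking, followed by detection reagents for another 1 h. Complex levels: 375 nM for G12D/Q25A–PI3KCA, 100 nM for G12D–RAF1, 50 nM for G12V and WT–RAF1.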
# [2] = biological target: T2, Avi-KRAS WT (1-169) GppNHp/RAF1 RBD-3xFLAG (52-151) (Homo sapiens, UniProt P01116); test: RAS-effector PPI HTRF disruption assay, Raf1-GppNHp-KRAS WT; assay type: biochemical
# T2 construct: 50 nM Avi-KRAS WT (1-169) GppNHp
# T2 sequence (P01116 1-169 isoform P01116-2): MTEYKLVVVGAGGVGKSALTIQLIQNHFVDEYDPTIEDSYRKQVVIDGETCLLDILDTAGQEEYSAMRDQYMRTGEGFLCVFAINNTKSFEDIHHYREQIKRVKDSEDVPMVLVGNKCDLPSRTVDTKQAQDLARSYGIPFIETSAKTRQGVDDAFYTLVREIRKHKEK
# Summary of the method: as §1
# [3] = system: pERK in GP2d cells (KRAS G12D); test: Cell-based pERK HTRF assay in GP2d cell; conditions: GP2d, 1 h, 60 min incubation
# Summary of the method: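 Phospho-ERK was measured by HTRF in lysates of KRAS G12D GP2d cells after 60 min of compound exposure. Nine concentrations were tested, half-log apart from a 1 μM top, with 0.25% DMSO throughout. Cells had been plated the previous day in DMEM with 10% FBS, and the detection antibodies were incubated 4–24 h at room temperature before reading.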
# GppNHp KRAS G12D = GppNHp KRAS G12D (Homo sapiens, UniProt P01116, G12D); test: SPR binding affinity to GppNHp KRAS G12D (Biacore S200); conditions: GppNHp-loaded KRAS G12D, steady state KD
# GppNHp KRAS G12D, sequence (P01116 1-188 isoform P01116-2 G12D): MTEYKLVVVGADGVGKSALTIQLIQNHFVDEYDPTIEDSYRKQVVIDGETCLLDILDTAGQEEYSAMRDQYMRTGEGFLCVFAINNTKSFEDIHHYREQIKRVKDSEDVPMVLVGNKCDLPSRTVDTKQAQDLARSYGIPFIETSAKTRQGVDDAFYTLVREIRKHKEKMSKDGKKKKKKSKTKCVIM
# Procedure: (§2) The affinity of compounds of the present disclosure to RAS ligands was assessed using surface plasmon resonance (SPR) binding analysis using a Biacore S200 (GE Healthcare Life Sciences) instrument. The SPR binding analysis employed the following reagents and protocols:
# (§3) Buffer preparation: To make 0.5 L add required amounts of stocks for: 20 mM Hepes, 150 mM NaCl, 5 mM MgCl2, 1 mM TCEP, 0.05% P20, and 5 μM nucleotide. Adjust pH to 7.4, then bring volume up to 475 mL 1.05×Filter through 0.2 μm cellulose acetate membrane. Remove a volume of buffer as No DMSO Buffer 1.05× and set aside. Add appropriate volume of DMSO to buffer to a final concentration 5% DMSO.
# (§4) Chip preparation: Prime 2× with 5% DMSO buffer. Allow system to flow on standby throughout the day.
# (§5) Sample preparation: Make a 20× compound solution in 100% DMSO of highest compound concentration to be screened (2 mM for final 100 μM compound). Add appropriate volume of 1.05× buffer without DMSO to give 5% DMSO and mix by pipetting. Centrifuge sample 18,000×g 5 min 25° C. Make appropriate serial dilutions from the highest concentration into 5% DMSO running buffer for the concentrations needed. Prepare 5.8% DMSO and 4.5% DMSO solvent correction solutions using buffer without DMSO. Make two more solvent corrections by mixing 200 μL 4.5% 500 μL 5.8%, and 400 μL 4.5% 300 μL 5.8%
# (§6) Capture Avi-taggedprotein: Thaw protein stock on ice, aliquot into single use size and freeze at −80° C. for future use. Dilute protein (avi-KRAS WT, avi-KRAS-G12D, avi-KRAS-G12V, or avi-RhoA) appropriately, to 20 μg/mL to begin in 5% DMSO buffer. Manually inject at 10 μL/min 12 second contact time. Adjust flow and or contact time to achieve desired level of captured protein. When desired level of protein is captured, flow for 10 minutes to stabilize signal.
# (§7) General Binding Level Screen Method: Choose LMW screen template in Fragment/LMW subfolder in Binding screen folder. 30 μL/min high performance injection, 60 sec contact and dissociation time, carry over control, extra wash with 50% DMSO for each injection. Fifteen Startup cycles to condition. Control samples before and after compound samples. For GppNHp loaded KRAS, control is 20 μM Raf1 RBD domain. Adjust this sample to final 5% DMSO to match running buffer. This process is performed at a temperature of 25° C. using a single chip per experiment.
# (§8) Binding affinity determination: Compounds selected from the binding level screen are evaluated in a dose response to determine the binding affinity (KD). Serial dilutions of compounds are prepared and injected over the sensor chip using a flow rate of 30 μL/min with a 60 second contact and dissociation time. After double referencing of the sensorgrams the total level of compound binding at each concentration is calculated. The steady state binding affinity is calculated with a Langmuir binding model assuming a 1:1 interaction with a constrained Rmax using the BIAevaluation software.
# [4] = biological target: T3, Avi-KRAS G12V (1-169) GppNHp/RAF1 RBD-3xFLAG (52-151) (Homo sapiens, UniProt P01116, G12V); test: RAS-effector PPI HTRF disruption assay, Raf1-GppNHp-KRAS G12V; assay type: biochemical
# T3 construct: 50 nM Avi-KRAS G12V (1-169) GppNHp
# T3 sequence (P01116 1-169 isoform P01116-2 G12V): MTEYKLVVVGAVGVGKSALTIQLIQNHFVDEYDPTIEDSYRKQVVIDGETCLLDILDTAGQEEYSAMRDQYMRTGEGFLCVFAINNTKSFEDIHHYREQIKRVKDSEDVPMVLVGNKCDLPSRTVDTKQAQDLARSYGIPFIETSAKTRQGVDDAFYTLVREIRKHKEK
# Summary of the method: as §1
# GDP KRAS G12D = GDP KRAS G12D (Homo sapiens, UniProt P01116, G12D); test: SPR binding affinity to GDP KRAS G12D (Biacore S200); conditions: GDP-loaded KRAS G12D, steady state KD
# GDP KRAS G12D, sequence (P01116 1-188 isoform P01116-2 G12D): as the sequence (P01116 1-188 isoform P01116-2 G12D) above
# Procedure: as §2, §3, §4, §5, §6, §7, §8
# [5] = biological target: T4, Avi-KRAS G12D (1-169) GppNHp/RAF1 RBD-3xFLAG (52-151) (Homo sapiens, UniProt P01116, G12D); test: RAS-effector PPI HTRF disruption assay, Raf1-GppNHp-KRAS G12D; assay type: biochemical
# T4 construct: 100 nM Avi-KRAS G12D (1-169) GppNHp
# T4 sequence (P01116 1-169 isoform P01116-2 G12D): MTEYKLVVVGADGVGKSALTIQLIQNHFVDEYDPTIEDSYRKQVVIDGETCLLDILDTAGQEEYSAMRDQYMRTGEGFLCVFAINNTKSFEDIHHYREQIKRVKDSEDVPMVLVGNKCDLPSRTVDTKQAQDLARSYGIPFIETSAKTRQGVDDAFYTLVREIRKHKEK
# Summary of the method: as §1
# T1 sequence (P01116 1-169 isoform P01116-2 G12D/Q25A): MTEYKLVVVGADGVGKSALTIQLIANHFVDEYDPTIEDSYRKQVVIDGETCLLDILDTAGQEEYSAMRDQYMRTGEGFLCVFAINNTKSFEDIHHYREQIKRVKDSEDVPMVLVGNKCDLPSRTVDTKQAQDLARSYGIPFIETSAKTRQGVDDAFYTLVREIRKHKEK
smiles,measurement,setting,value
"C[C@@H]1C[C@@H](Oc2nc(OC[C@@]34CCCN3C[C@H](F)C4)nc3c(F)c(-c4ccc(F)c5sc(N)nc45)c(C(F)(F)F)cc23)CN1 (atropisomer, axis not shown) [Compound 20]",IC50,[1],1 to 10 µM
same,IC50,[2],1 to 10 µM
same,IC50,[3],≤ 0.1 µM
same,Kd,GppNHp KRAS G12D,0.1 to 1 µM
same,IC50,[4],1 to 10 µM
same,Kd,GDP KRAS G12D,≤ 0.1 µM
same,IC50,[5],0.1 to 1 µM
"Nc1nc2c(-c3c(C(F)(F)F)cc4c(O[C@H]5CNC[C@@H]5F)nc(OC[C@@]56CCCN5C[C@H](F)C6)nc4c3F)ccc(F)c2s1 (atropisomer, axis not shown) [Compound 18]",IC50,[1],> 10 µM
same,IC50,[2],> 10 µM
same,Kd,GppNHp KRAS G12D,> 10 µM
same,IC50,[4],> 10 µM
same,Kd,GDP KRAS G12D,0.1 to 1 µM
same,IC50,[5],> 10 µM
"Nc1nc2c(-c3c(C(F)(F)F)cc4c(O[C@H]5CNC[C@@H]5F)nc(OC[C@@]56CCCN5C[C@H](F)C6)nc4c3F)ccc(F)c2s1 (atropisomer, axis not shown) [Compound 17]",IC50,[1],0.1 to 1 µM
same,IC50,[2],1 to 10 µM
same,IC50,[3],0.1 to 1 µM
same,Kd,GppNHp KRAS G12D,0.1 to 1 µM
same,IC50,[4],1 to 10 µM
same,Kd,GDP KRAS G12D,≤ 0.1 µM
same,IC50,[5],0.1 to 1 µM
C[C@H]1C[C@@H](Oc2nc(OC[C@@]34CCCN3C[C@H](F)C4)nc3c(F)c(-c4ccc(F)c5sc(N)nc45)c(C(F)(F)F)cc23)CN1 [Compound 7],IC50,[1],1 to 10 µM
same,IC50,[2],1 to 10 µM
same,IC50,[3],≤ 0.1 µM
same,Kd,GppNHp KRAS G12D,1 to 10 µM
same,IC50,[4],> 10 µM
same,IC50,[5],0.1 to 1 µM
Nc1nc2c(-c3c(C(F)(F)F)cc4c(OC5CC6CC[C@H](C5)N6)nc(OCC56CCCN5CCC6)nc4c3F)ccc(F)c2s1 (stereo partly shown) [Compound 26],IC50,[1],0.1 to 1 µM
same,IC50,[2],≤ 0.1 µM
same,IC50,[3],> 1 µM
same,Kd,GppNHp KRAS G12D,≤ 0.1 µM
same,IC50,[4],1 to 10 µM
same,Kd,GDP KRAS G12D,≤ 0.1 µM
same,IC50,[5],≤ 0.1 µM
C[C@H]1NCCC1Oc1nc(OC[C@@]23CCCN2C[C@H](F)C3)nc2c(F)c(-c3ccc(F)c4sc(N)nc34)c(C(F)(F)F)cc12 (stereo partly shown) [Compound 19],IC50,[1],0.1 to 1 µM
same,IC50,[2],0.1 to 1 µM
same,IC50,[3],≤ 0.1 µM
same,Kd,GppNHp KRAS G12D,0.1 to 1 µM
same,IC50,[4],1 to 10 µM
same,Kd,GDP KRAS G12D,≤ 0.1 µM
same,IC50,[5],0.1 to 1 µM
N#Cc1c(N)sc2c(F)ccc(-c3cc4nc(OC[C@@]56CCCN5C[C@H](F)C6)nc(O[C@H]5CNC[C@@H]5F)c4cc3C(F)(F)F)c12 [Compound 46],IC50,[1],> 10 µM
same,IC50,[2],> 10 µM
same,IC50,[3],> 1 µM
same,IC50,[4],> 10 µM
same,IC50,[5],0.1 to 1 µM
"C[C@@H]1C[C@@H](Oc2nc(OC[C@@]34CCCN3C[C@H](F)C4)nc3c(F)c(-c4ccc(F)c5sc(N)nc45)c(C(F)(F)F)cc23)CN1 (atropisomer, axis not shown) [Compound 21]",IC50,[1],> 10 µM
same,IC50,[2],> 10 µM
same,Kd,GppNHp KRAS G12D,> 10 µM
same,IC50,[4],> 10 µM
same,Kd,GDP KRAS G12D,1 to 10 µM
same,IC50,[5],> 10 µM
Nc1nc2c(-c3c(C(F)(F)F)cc4c(O[C@H]5CN[C@H](CO)C5)nc(OCC56CCCN5C[C@H](F)C6)nc4c3F)ccc(F)c2s1 (stereo partly shown) [Compound 52],IC50,[1],1 to 10 µM
same,IC50,[2],1 to 10 µM
same,IC50,[3],0.1 to 1 µM
same,IC50,[4],> 10 µM
same,IC50,[5],0.1 to 1 µM
C[C@@H]1C[C@@H](Oc2nc(OC[C@@]34CCCN3C[C@H](F)C4)nc3c(F)c(-c4ccc(F)c5sc(N)c(C#N)c45)ccc23)CN1 [Compound 56],IC50,[1],0.1 to 1 µM
same,IC50,[2],1 to 10 µM
same,IC50,[3],0.1 to 1 µM
same,IC50,[4],> 10 µM
same,IC50,[5],1 to 10 µM
